Test results published in the NIST ThermoML archive (doi:10.1016/j.jct.2007.04.005).
Numbers after ± are expanded uncertainties.

Test: xn = mol fraction of the nth substance listed
Conditions: 328.15 K, Liquid

SMILES: CCCCCCCCC [nonane] + C1CCCCC1
- mass density (100 kPa, x2 = 0): 690.5 ± 0.7 kg/m3
- mass density (100 kPa, x2 = 0.09303): 693.4 ± 0.7 kg/m3
- mass density (100 kPa, x2 = 0.2009): 697 ± 0.7 kg/m3
- mass density (100 kPa, x2 = 0.3051): 700.9 ± 0.7 kg/m3
- mass density (100 kPa, x2 = 0.417): 705.3 ± 0.6 kg/m3
- mass density (100 kPa, x2 = 0.512): 709.7 ± 0.6 kg/m3
- mass density (100 kPa, x2 = 0.5996): 714.5 ± 0.6 kg/m3
- mass density (100 kPa, x2 = 0.7052): 720.8 ± 0.6 kg/m3
- mass density (100 kPa, x2 = 0.7993): 727.5 ± 0.6 kg/m3
- mass density (100 kPa, x2 = 0.9039): 735.7 ± 0.6 kg/m3
- mass density (101 kPa, x2 = 0): 690.88 ± 0.7 kg/m3
- mass density (101 kPa, x2 = 0.1022): 693.98 ± 0.68 kg/m3
- mass density (101 kPa, x2 = 0.1548): 695.7 ± 0.68 kg/m3
- mass density (101 kPa, x2 = 0.2009): 697.27 ± 0.67 kg/m3
- mass density (101 kPa, x2 = 0.2591): 699.37 ± 0.66 kg/m3
- mass density (101 kPa, x2 = 0.3306): 702.13 ± 0.65 kg/m3
- mass density (101 kPa, x2 = 0.4003): 705.03 ± 0.64 kg/m3
- mass density (101 kPa, x2 = 0.4596): 707.71 ± 0.63 kg/m3
- mass density (101 kPa, x2 = 0.5321): 711.23 ± 0.62 kg/m3
- mass density (101 kPa, x2 = 0.612): 715.53 ± 0.6 kg/m3
- mass density (101 kPa, x2 = 0.6649): 718.62 ± 0.59 kg/m3
- mass density (101 kPa, x2 = 0.7224): 722.28 ± 0.58 kg/m3
- mass density (101 kPa, x2 = 0.8047): 728.07 ± 0.57 kg/m3
- mass density (101 kPa, x2 = 0.8686): 733.12 ± 0.56 kg/m3
- mass density (101 kPa, x2 = 0.9405): 739.53 ± 0.54 kg/m3
- mass density (2130 kPa, x2 = 0): 691.4 ± 0.8 kg/m3
- mass density (2130 kPa, x2 = 0.09303): 694.3 ± 0.8 kg/m3
- mass density (2130 kPa, x2 = 0.2009): 697.9 ± 0.8 kg/m3
- mass density (2130 kPa, x2 = 0.3051): 701.8 ± 0.8 kg/m3
- mass density (2130 kPa, x2 = 0.417): 706.3 ± 0.8 kg/m3
- mass density (2130 kPa, x2 = 0.512): 710.7 ± 0.7 kg/m3
- mass density (2130 kPa, x2 = 0.5996): 715.6 ± 0.7 kg/m3
- mass density (2130 kPa, x2 = 0.7052): 721.9 ± 0.7 kg/m3
- mass density (2130 kPa, x2 = 0.7993): 728.6 ± 0.7 kg/m3
- mass density (2130 kPa, x2 = 0.9039): 737 ± 0.7 kg/m3
- mass density (4150 kPa, x2 = 0): 694.4 ± 0.9 kg/m3
- mass density (4150 kPa, x2 = 0.09303): 697.3 ± 0.9 kg/m3
- mass density (4150 kPa, x2 = 0.2009): 700.9 ± 0.9 kg/m3
- mass density (4150 kPa, x2 = 0.3051): 704.8 ± 0.9 kg/m3
- mass density (4150 kPa, x2 = 0.417): 709.3 ± 0.8 kg/m3
- mass density (4150 kPa, x2 = 0.512): 713.7 ± 0.8 kg/m3
- mass density (4150 kPa, x2 = 0.5996): 718.6 ± 0.8 kg/m3
- mass density (4150 kPa, x2 = 0.7052): 724.9 ± 0.8 kg/m3
- mass density (4150 kPa, x2 = 0.7993): 731.6 ± 0.8 kg/m3
- mass density (4150 kPa, x2 = 0.9039): 739.9 ± 0.8 kg/m3
- mass density (6180 kPa, x2 = 0): 696.3 ± 1 kg/m3
- mass density (6180 kPa, x2 = 0.09303): 699.2 ± 1 kg/m3
- mass density (6180 kPa, x2 = 0.2009): 702.8 ± 1 kg/m3
- mass density (6180 kPa, x2 = 0.3051): 706.7 ± 0.9 kg/m3
- mass density (6180 kPa, x2 = 0.417): 711.2 ± 0.9 kg/m3
- mass density (6180 kPa, x2 = 0.512): 715.6 ± 0.9 kg/m3
- mass density (6180 kPa, x2 = 0.5996): 720.5 ± 0.9 kg/m3
- mass density (6180 kPa, x2 = 0.7052): 726.9 ± 0.9 kg/m3
- mass density (6180 kPa, x2 = 0.7993): 733.5 ± 0.8 kg/m3
- mass density (6180 kPa, x2 = 0.9039): 741.9 ± 0.8 kg/m3
- mass density (8210 kPa, x2 = 0): 698.1 ± 1.1 kg/m3
- mass density (8210 kPa, x2 = 0.09303): 701 ± 1.1 kg/m3
- mass density (8210 kPa, x2 = 0.2009): 704.7 ± 1 kg/m3
- mass density (8210 kPa, x2 = 0.3051): 708.6 ± 1 kg/m3
- mass density (8210 kPa, x2 = 0.417): 713.1 ± 1 kg/m3
- mass density (8210 kPa, x2 = 0.512): 717.5 ± 1 kg/m3
- mass density (8210 kPa, x2 = 0.5996): 722.4 ± 1 kg/m3
- mass density (8210 kPa, x2 = 0.7052): 728.8 ± 0.9 kg/m3
- mass density (8210 kPa, x2 = 0.7993): 735.5 ± 0.9 kg/m3
- mass density (8210 kPa, x2 = 0.9039): 743.9 ± 0.9 kg/m3
- mass density (10230 kPa, x2 = 0): 699.9 ± 1.2 kg/m3
- mass density (10230 kPa, x2 = 0.09303): 702.8 ± 1.2 kg/m3
- mass density (10230 kPa, x2 = 0.2009): 706.5 ± 1.1 kg/m3
- mass density (10230 kPa, x2 = 0.3051): 710.4 ± 1.1 kg/m3
- mass density (10230 kPa, x2 = 0.417): 714.9 ± 1.1 kg/m3
- mass density (10230 kPa, x2 = 0.512): 719.3 ± 1.1 kg/m3
- mass density (10230 kPa, x2 = 0.5996): 724.3 ± 1 kg/m3
- mass density (10230 kPa, x2 = 0.7052): 730.7 ± 1 kg/m3
- mass density (10230 kPa, x2 = 0.7993): 737.3 ± 1 kg/m3
- mass density (10230 kPa, x2 = 0.9039): 745.8 ± 1 kg/m3
- mass density (11250 kPa, x2 = 0): 700.8 ± 1.2 kg/m3
- mass density (11250 kPa, x2 = 0.09303): 703.7 ± 1.2 kg/m3
- mass density (11250 kPa, x2 = 0.2009): 707.4 ± 1.2 kg/m3
- mass density (11250 kPa, x2 = 0.3051): 711.3 ± 1.2 kg/m3
- mass density (11250 kPa, x2 = 0.417): 715.8 ± 1.1 kg/m3
- mass density (11250 kPa, x2 = 0.512): 720.2 ± 1.1 kg/m3
- mass density (11250 kPa, x2 = 0.5996): 725.2 ± 1.1 kg/m3
- mass density (11250 kPa, x2 = 0.7052): 731.6 ± 1.1 kg/m3
- mass density (11250 kPa, x2 = 0.7993): 738.3 ± 1 kg/m3
- mass density (11250 kPa, x2 = 0.9039): 746.7 ± 1 kg/m3
- mass density (12260 kPa, x2 = 0): 701.7 ± 1.3 kg/m3
- mass density (12260 kPa, x2 = 0.09303): 704.6 ± 1.2 kg/m3
- mass density (12260 kPa, x2 = 0.2009): 708.3 ± 1.2 kg/m3
- mass density (12260 kPa, x2 = 0.3051): 712.2 ± 1.2 kg/m3
- mass density (12260 kPa, x2 = 0.417): 716.7 ± 1.2 kg/m3
- mass density (12260 kPa, x2 = 0.512): 721.1 ± 1.1 kg/m3
- mass density (12260 kPa, x2 = 0.5996): 726.1 ± 1.1 kg/m3
- mass density (12260 kPa, x2 = 0.7052): 732.5 ± 1.1 kg/m3
- mass density (12260 kPa, x2 = 0.7993): 739.2 ± 1.1 kg/m3
- mass density (12260 kPa, x2 = 0.9039): 747.7 ± 1 kg/m3
- mass density (14290 kPa, x2 = 0): 703.4 ± 1.3 kg/m3
- mass density (14290 kPa, x2 = 0.09303): 706.3 ± 1.3 kg/m3
- mass density (14290 kPa, x2 = 0.2009): 710.1 ± 1.3 kg/m3
- mass density (14290 kPa, x2 = 0.3051): 714 ± 1.3 kg/m3
- mass density (14290 kPa, x2 = 0.417): 718.5 ± 1.2 kg/m3
- mass density (14290 kPa, x2 = 0.512): 722.9 ± 1.2 kg/m3
- mass density (14290 kPa, x2 = 0.5996): 727.9 ± 1.2 kg/m3
- mass density (14290 kPa, x2 = 0.7052): 734.4 ± 1.2 kg/m3
- mass density (14290 kPa, x2 = 0.7993): 741 ± 1.1 kg/m3
- mass density (14290 kPa, x2 = 0.9039): 749.5 ± 1.1 kg/m3
- mass density (16310 kPa, x2 = 0): 705.1 ± 1.4 kg/m3
- mass density (16310 kPa, x2 = 0.09303): 708 ± 1.4 kg/m3
- mass density (16310 kPa, x2 = 0.2009): 711.8 ± 1.4 kg/m3
- mass density (16310 kPa, x2 = 0.3051): 715.7 ± 1.4 kg/m3
- mass density (16310 kPa, x2 = 0.417): 720.2 ± 1.3 kg/m3
- mass density (16310 kPa, x2 = 0.512): 724.6 ± 1.3 kg/m3
- mass density (16310 kPa, x2 = 0.5996): 729.7 ± 1.3 kg/m3
- mass density (16310 kPa, x2 = 0.7052): 736.1 ± 1.2 kg/m3
- mass density (16310 kPa, x2 = 0.7993): 742.8 ± 1.2 kg/m3
- mass density (16310 kPa, x2 = 0.9039): 751.3 ± 1.2 kg/m3
- mass density (18340 kPa, x2 = 0): 706.8 ± 1.5 kg/m3
- mass density (18340 kPa, x2 = 0.09303): 709.6 ± 1.5 kg/m3
- mass density (18340 kPa, x2 = 0.2009): 713.4 ± 1.5 kg/m3
- mass density (18340 kPa, x2 = 0.3051): 717.3 ± 1.4 kg/m3
- mass density (18340 kPa, x2 = 0.417): 721.9 ± 1.4 kg/m3
- mass density (18340 kPa, x2 = 0.512): 726.3 ± 1.4 kg/m3
- mass density (18340 kPa, x2 = 0.5996): 731.4 ± 1.3 kg/m3
